From PubChem BioAssay (NCI)
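How tested: cells in 96-well plates exposed to compound for 48 hours at five concentrations. GI50 is the concentration that inhibits growth by half. Definition used: TGI = concentration required for complete inhibition of growth.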 Where a SMILES comes first, the peptide text is derived from it. Bridges are numbered along the chain shown (N, C = ends). [ ]: non-standard residue; d: D form. The star is where a group is joined. Cbz = O=C(OCc1ccccc1)*; Dab = NCC[CH](N)C(=O)O; Bn = c1ccc(C*)cc1

Assays:
Experiment in all cases: growth of human tumour cells (NCI), 48 h
NCI-H23 lung = tested on: NCI-H23 lung
NCI-H226 lung = tested on: NCI-H226 lung
HOP-92 NSCLC = tested on: HOP-92 NSCLC
UACC-257 melanoma = tested on: UACC-257 melanoma
MCF7 breast = tested on: MCF7 breast
COLO 205 colon = tested on: COLO 205 colon
SF-268 CNS = tested on: SF-268 CNS
NCI-H460 lung = tested on: NCI-H460 lung
OVCAR-8 ovarian = tested on: OVCAR-8 ovarian
SN12C renal = tested on: SN12C renal
UACC-62 melanoma = tested on: UACC-62 melanoma
SF-539 CNS = tested on: SF-539 CNS
HCT-116 colon = tested on: HCT-116 colon
SF-295 CNS = tested on: SF-295 CNS
T-47D breast = tested on: T-47D breast
OVCAR-5 ovarian = tested on: OVCAR-5 ovarian
M14 melanoma = tested on: M14 melanoma
MDA-MB-435 = tested on: MDA-MB-435
NCI/ADR-RES ovarian = tested on: NCI/ADR-RES ovarian
ACHN renal = tested on: ACHN renal
IGROV1 ovarian = tested on: IGROV1 ovarian
HT29 colon = tested on: HT29 colon
OVCAR-3 ovarian = tested on: OVCAR-3 ovarian
MOLT-4 leukemia = tested on: MOLT-4 leukemia
K-562 leukemia = tested on: K-562 leukemia
786-0 renal = tested on: 786-0 renal
SK-MEL-28 melanoma = tested on: SK-MEL-28 melanoma
DU-145 prostate = tested on: DU-145 prostate
CCRF-CEM leukemia = tested on: CCRF-CEM leukemia
HS 578T breast = tested on: HS 578T breast
HCT-15 colon = tested on: HCT-15 colon
NCI-H522 lung = tested on: NCI-H522 lung
SK-MEL-2 melanoma = tested on: SK-MEL-2 melanoma
EKVX NSCLC = tested on: EKVX NSCLC
PC-3 prostate = tested on: PC-3 prostate
A549 NSCLC = tested on: A549 NSCLC
RPMI-8226 leukemia = tested on: RPMI-8226 leukemia
SNB-75 CNS = tested on: SNB-75 CNS
KM12 colon = tested on: KM12 colon
SNB-19 CNS = tested on: SNB-19 CNS
SR leukemia = tested on: SR leukemia
UO-31 renal = tested on: UO-31 renal
LOX IMVI melanoma = tested on: LOX IMVI melanoma
U251 CNS = tested on: U251 CNS
RXF 393 renal = tested on: RXF 393 renal
MALME-3M melanoma = tested on: MALME-3M melanoma
HOP-62 NSCLC = tested on: HOP-62 NSCLC
A498 renal = tested on: A498 renal
BT-549 breast = tested on: BT-549 breast
SK-MEL-5 melanoma = tested on: SK-MEL-5 melanoma
MDA-MB-231 breast = tested on: MDA-MB-231 breast
OVCAR-4 ovarian = tested on: OVCAR-4 ovarian
SK-OV-3 ovarian = tested on: SK-OV-3 ovarian
SW-620 colon = tested on: SW-620 colon
CAKI-1 renal = tested on: CAKI-1 renal
HL-60(TB) leukemia = tested on: HL-60(TB) leukemia
TK-10 renal = tested on: TK-10 renal

CC(C)CC1NC(=O)C(Cc2ccccc2)NC(=O)C(Cc2ccccc2)NC(=O)C(NC(=O)C(Cc2ccc(OCc3ccccc3)cc2)NC(=O)OCc2ccccc2)CCNC1=O (centres undefined) (Cbz-Y(Bn)[Dab]FFL; lactam 2-C; configuration not given here)
TGI (NCI-H23 lung): > 100 µM
TGI (NCI-H226 lung): > 100 µM
TGI (HOP-92 NSCLC): > 100 µM
TGI (UACC-257 melanoma): 84.7 µM

CCn1ncc2c1nc(-c1ccccc1)c[n+]2[O-]
TGI (NCI-H23 lung): > 100 µM
TGI (MCF7 breast): > 100 µM
TGI (COLO 205 colon): > 100 µM
TGI (SF-268 CNS): > 100 µM
TGI (NCI-H460 lung): > 100 µM
TGI (OVCAR-8 ovarian): > 100 µM
TGI (SN12C renal): > 100 µM
TGI (UACC-62 melanoma): > 100 µM
TGI (SF-539 CNS): > 100 µM
TGI (HCT-116 colon): > 100 µM
TGI (SF-295 CNS): > 100 µM
TGI (T-47D breast): > 100 µM
TGI (OVCAR-5 ovarian): > 100 µM
TGI (M14 melanoma): > 100 µM
TGI (MDA-MB-435): > 100 µM
TGI (NCI/ADR-RES ovarian): > 100 µM
TGI (ACHN renal): > 100 µM
TGI (IGROV1 ovarian): > 100 µM
TGI (HT29 colon): > 100 µM
TGI (OVCAR-3 ovarian): > 100 µM
TGI (MOLT-4 leukemia): > 100 µM
TGI (K-562 leukemia): > 100 µM
TGI (786-0 renal): > 100 µM
TGI (SK-MEL-28 melanoma): > 100 µM
TGI (DU-145 prostate): > 100 µM
TGI (CCRF-CEM leukemia): > 100 µM
TGI (HS 578T breast): > 100 µM
TGI (HCT-15 colon): > 100 µM
TGI (NCI-H522 lung): > 100 µM
TGI (UACC-257 melanoma): > 100 µM
TGI (SK-MEL-2 melanoma): > 100 µM
TGI (EKVX NSCLC): > 100 µM
TGI (PC-3 prostate): > 100 µM
TGI (A549 NSCLC): > 100 µM
TGI (RPMI-8226 leukemia): > 100 µM
TGI (SNB-75 CNS): > 100 µM
TGI (KM12 colon): > 100 µM
TGI (SNB-19 CNS): > 100 µM
TGI (SR leukemia): > 100 µM
TGI (UO-31 renal): > 100 µM

Cc1ccc(S(=O)(=O)Oc2ccc([N+](=O)[O-])cc2[N+](=O)[O-])cc1
GI50 (NCI-H23 lung): 6.15 µM
TGI (NCI-H23 lung): 32.3 µM
GI50 (LOX IMVI melanoma): 3.23 µM
TGI (LOX IMVI melanoma): 15 µM
GI50 (MCF7 breast): 4.13 µM
TGI (MCF7 breast): 23.2 µM
GI50 (U251 CNS): 3.83 µM
TGI (U251 CNS): 14.5 µM
GI50 (COLO 205 colon): 4.51 µM
TGI (COLO 205 colon): 18.6 µM
GI50 (SF-268 CNS): 3.64 µM
TGI (SF-268 CNS): 15 µM
GI50 (NCI-H460 lung): 15.4 µM
TGI (NCI-H460 lung): 39 µM
GI50 (OVCAR-8 ovarian): 4.24 µM
TGI (OVCAR-8 ovarian): 20.5 µM
GI50 (SN12C renal): 3.78 µM
TGI (SN12C renal): 17.3 µM
GI50 (UACC-62 melanoma): 12.4 µM
TGI (UACC-62 melanoma): 30.9 µM
GI50 (SF-539 CNS): 4.54 µM
TGI (SF-539 CNS): 18.2 µM
GI50 (HCT-116 colon): 3.16 µM
TGI (HCT-116 colon): 13.2 µM
GI50 (NCI-H226 lung): 10.6 µM
TGI (NCI-H226 lung): 43.6 µM
GI50 (SF-295 CNS): 10.4 µM
TGI (SF-295 CNS): 25.2 µM
GI50 (HOP-92 NSCLC): 4.34 µM
TGI (HOP-92 NSCLC): 21.7 µM
GI50 (T-47D breast): 15.3 µM
TGI (T-47D breast): 45 µM
GI50 (OVCAR-5 ovarian): 8.01 µM
TGI (OVCAR-5 ovarian): 26.6 µM
GI50 (M14 melanoma): 2.57 µM
TGI (M14 melanoma): 10.9 µM
GI50 (MDA-MB-435): 3.1 µM
TGI (MDA-MB-435): 10.5 µM
GI50 (RXF 393 renal): 7.89 µM
TGI (RXF 393 renal): 20.7 µM
GI50 (NCI/ADR-RES ovarian): 5.31 µM
TGI (NCI/ADR-RES ovarian): 38 µM
GI50 (ACHN renal): 7.64 µM
TGI (ACHN renal): 22.5 µM
GI50 (IGROV1 ovarian): 2.46 µM
TGI (IGROV1 ovarian): 8.37 µM
GI50 (MALME-3M melanoma): 10.7 µM
TGI (MALME-3M melanoma): 29.8 µM
GI50 (HT29 colon): 3.63 µM
TGI (HT29 colon): 58.7 µM
GI50 (OVCAR-3 ovarian): 3.24 µM
TGI (OVCAR-3 ovarian): 11.5 µM
GI50 (HOP-62 NSCLC): 13.6 µM
TGI (HOP-62 NSCLC): 30.5 µM
GI50 (MOLT-4 leukemia): 3.82 µM
TGI (MOLT-4 leukemia): 55.1 µM
GI50 (A498 renal): 11.8 µM
TGI (A498 renal): 24.9 µM
GI50 (K-562 leukemia): 0.689 µM
TGI (K-562 leukemia): > 100 µM
GI50 (786-0 renal): 3.83 µM
TGI (786-0 renal): 14.6 µM
GI50 (BT-549 breast): 5.41 µM
TGI (BT-549 breast): 18 µM
GI50 (SK-MEL-28 melanoma): 13 µM
TGI (SK-MEL-28 melanoma): 26.4 µM
GI50 (SK-MEL-5 melanoma): 3.26 µM
TGI (SK-MEL-5 melanoma): 12.5 µM
GI50 (MDA-MB-231 breast): 6.7 µM
TGI (MDA-MB-231 breast): 22.1 µM
GI50 (OVCAR-4 ovarian): 7.51 µM
TGI (OVCAR-4 ovarian): 20.4 µM
GI50 (SK-OV-3 ovarian): 9.4 µM
TGI (SK-OV-3 ovarian): 91.3 µM
GI50 (DU-145 prostate): 11.4 µM
TGI (DU-145 prostate): 23.5 µM
GI50 (CCRF-CEM leukemia): 0.6 µM
TGI (CCRF-CEM leukemia): 15.7 µM
GI50 (HS 578T breast): 21.5 µM
TGI (HS 578T breast): > 100 µM
GI50 (HCT-15 colon): 3.61 µM
TGI (HCT-15 colon): 17.9 µM
GI50 (SW-620 colon): 4.04 µM
TGI (SW-620 colon): 24.9 µM
GI50 (UACC-257 melanoma): 2.77 µM
TGI (UACC-257 melanoma): 12.2 µM
GI50 (SK-MEL-2 melanoma): 4.31 µM
TGI (SK-MEL-2 melanoma): 16.6 µM
GI50 (EKVX NSCLC): 17.9 µM
TGI (EKVX NSCLC): 34.4 µM
GI50 (PC-3 prostate): 5.15 µM
TGI (PC-3 prostate): 26.5 µM
GI50 (A549 NSCLC): 8.53 µM
TGI (A549 NSCLC): 22.2 µM
GI50 (CAKI-1 renal): 2.03 µM
TGI (CAKI-1 renal): 4.27 µM
GI50 (RPMI-8226 leukemia): 2.45 µM
TGI (RPMI-8226 leukemia): 7.84 µM
GI50 (SNB-75 CNS): 6.77 µM
TGI (SNB-75 CNS): 21.3 µM
GI50 (KM12 colon): 6.7 µM
TGI (KM12 colon): 20 µM
GI50 (HL-60(TB) leukemia): 11.4 µM
TGI (HL-60(TB) leukemia): 38.3 µM
GI50 (SNB-19 CNS): 17.2 µM
TGI (SNB-19 CNS): 38.1 µM
GI50 (UO-31 renal): 2.48 µM
TGI (UO-31 renal): 9.26 µM
GI50 (TK-10 renal): 4.54 µM
TGI (TK-10 renal): 17.4 µM
